In US8278464B2, “Insecticides” (Syngenta Crop Protection LLC, priority 2006, dated 2012):

What was measured:
[1] = test system: Heliothis virescens (Tobacco Budworm); assay: Activity against Heliothis virescens, eggs on artificial diet (Example B2); format: in vivo; conditions: 96 h, eggs 0-24 h old, incubation 4 days
Procedure: Eggs (0-24 h old) are placed in 24-well microtiter plate on artificial diet and treated with test solutions by pipetting. After an incubation period of 4 days, samples are checked for egg mortality, larval mortality, and growth regulation.

[2] = test system: Plutella xylostella (Diamond Back Moth); assay: Activity against Plutella xylostella, artificial diet MTP (Example B3); format: in vivo; conditions: 120 h, L2 larvae, incubation 5 days
Procedure: (§1) 24-well microtiter plate (MTP) with artificial diet is treated with test solutions by pipetting. After drying, the MTP's are infested with larvae (L2) (10-15 per well). After an incubation period of 5 days, samples are checked for larval mortality, antifeedant and growth regulation. In this test, compounds listed in the Tables above show good activity. In particular compounds T13.1.2, T15.1.1, T15.1.91, T13.1.1, T9.1.2 (diastereomer A), T9.1.2 (diastereomer B), T16.1.1, T17.1.2 (diastereomer A), T17.1.2 (diastereomer B), T16.1.91, T13.1.92, T13.1.361, T13.1.391, T13.1.91, T13.1.6, T13.1.96, T44.1.2, T13.1.8, T13.1.23, T13.1.93, T13.1.113, T13.1.21, T13.1.111 have an activity of over 80% at 400 ppm.

[3] = test system: Spodoptera littoralis (Egyptian Cotton Leafworm); assay: Activity against Spodoptera littoralis, cotton leaf discs sprayed (Example B1); format: in vivo; conditions: foliar, 72 h, L1 larvae, checked 3 days after treatment
Excerpt: Cotton leaf discs are placed on agar in a 24-well microtiter plate and sprayed with test solutions. After drying, the leaf discs are infested with 5 L1 larvae. The samples are checked for mortality, repellent effect, feeding behaviour, and growth regulation 3 days after treatment (DAT).

[4] = test system: Diabrotica balteata (Corn Root Worm); assay: Activity against Diabrotica balteata, artificial diet MTP (Example B4); format: in vivo; conditions: 120 h, L2 larvae, incubation 5 days
Procedure: as §1, with “(6-10” for “(10-15”, “B),” for “B), T16.1.1,”, “T13.1.92,” for “T13.1.92, T13.1.361, T13.1.391,”, “T13.1.23,” for “T13.1.23, T13.1.93,”

[5] = test system: Thrips tabaci (Onion Thrips); assay: Activity against Thrips tabaci, sunflower leaf discs (Example B7); format: in vivo; conditions: foliar, 144 h, incubation 6 days
Procedure: Sunflower leaf discs are placed on agar in a 24-well microtiter plate and sprayed with test solutions. After drying, the leaf discs are infested with a thrips population of mixed ages. After an incubation period of 6 days, samples are checked for mortality and special effects (e.g. phytotoxicity).

[6] = test system: Spodoptera littoralis (Cotton Leafworm); assay: Systemic insecticide test for Spodoptera littoralis, maize seedlings, 12.5 ppm (Example B9); format: in vivo; conditions: 96 h, 12.5 ppm in water, systemic via maize seedlings, larvae incubated four days
Procedure: Four day old maize seedlings (Zea mais, variety Stoneville) are placed individual in vials containing 24 ml water into which the chemical is diluted at 12.5 ppm. Seedlings are allowed to grow for six days. Subsequently leaves are cut and placed in a Petri dish (5 cm diameter), inoculated with twelve to fifteen 1st instar S. littoralis larvae and incubated for four days in a growth chamber (25° C., 50% r.h., 18:6 L:D photo period). Number of alive insects are counted and percentage of dead calculated. Tests were conducted with one replicate.

[7] = test system: Myzus persicae (Green Peach Aphid); assay: Activity against Myzus persicae, systemic, pea seedlings (Example B6); format: in vivo; conditions: 144 h, 6 days after introduction
Excerpt: Roots of pea seedlings, infested with an aphid population of mixed ages, are placed directly in the test solutions. 6 days after introduction, samples are checked for mortality and special effects on the plant.

[8] = test system: Myzus persicae (Green Peach Aphid); assay: Activity against Myzus persicae, contact, sunflower leaf discs (Example B5); format: in vivo; conditions: foliar, 144 h, 6 DAT
Procedure: Sunflower leaf discs are placed on agar in a 24-well microtiter plate and sprayed with test solutions. After drying, the leaf discs are infested with an aphid population of mixed ages. After an incubation period of 6 DAT, samples are checked for mortality and special effects (e.g. phytotoxicity).

Row | SMILES | melting point [°C] | pest or weed control at 400 ppm [1] [%] | pest or weed control at 400 ppm [2] [%] | pest or weed control at 400 ppm [3] [%] | pest or weed control at 400 ppm [4] [%] | also measured
1 | Cc1cc(Cl)cc(C(=O)NC2C(C)(C)S(=O)(=O)C2(C)C)c1NC(=O)c1cc(C(F)(F)F)nn1-c1ncccc1Cl [T16.1.1] | – | > 80 | > 80 | > 80 | – | –
2 | Cc1cc(Cl)cc(C(=O)NC2(C)CN(Cc3ccccc3)C2)c1NC(=O)c1cc(C(F)(F)F)nn1-c1ncccc1Cl [T44.1.2, 2-(3-chloro-pyridin-2-yl)-5-trifluoromethyl-2H-pyrazole-3-carboxylic acid [4-chloro-2-methyl-6-(3-methyl-N-benzylazetidine-3-ylcarbamoyl)-phenyl]-amide] | – | > 80 | > 80 | > 80 | > 80 | pest or weed control at 400 ppm [5]: > 80%; pest or weed control at 12.5 ppm [6]: > 80%
3 | CCC1(NC(=O)c2cc(C#N)cc(C)c2NC(=O)c2cc(C(F)(F)F)nn2-c2ncccc2Cl)CS(=O)(=O)C1 [T13.1.93] | – | > 80 | > 80 | > 80 | – | pest or weed control at 400 ppm [7]: > 80%; pest or weed control at 400 ppm [5]: > 80%
4 | CCC1(NC(=O)c2cc(Cl)cc(C)c2NC(=O)c2cc(Br)nn2-c2ncccc2Cl)CS(=O)(=O)C1 [T13.1.8] | – | > 80 | > 80 | > 80 | > 80 | pest or weed control at 12.5 ppm [6]: > 80%
5 | Cc1cc(C#N)cc(C(=O)NC2CS(=O)(=O)C2)c1NC(=O)c1cc(C(F)(F)F)nn1-c1ncccc1Cl [T13.1.91] | – | > 80 | > 80 | > 80 | > 80 | pest or weed control at 400 ppm [5]: > 80%; pest or weed control at 400 ppm [8]: > 80%; pest or weed control at 12.5 ppm [6]: > 80%
6 | Cc1cc(Cl)cc(C(=O)NC2CS(=O)(=O)C2)c1NC(=O)c1cc(C(F)(F)F)nn1-c1ncccc1Cl [T13.1.1] | – | > 80 | > 80 | > 80 | > 80 | pest or weed control at 400 ppm [7]: > 80%; pest or weed control at 400 ppm [5]: > 80%; pest or weed control at 12.5 ppm [6]: > 80%
7 | Cc1cc(Cl)cc(C(=O)NC2CS(=O)(=O)C2(C)C)c1NC(=O)c1cc(C(F)(F)F)nn1-c1ncccc1Cl (stereo not shown) [T15.1.1] | – | > 80 | > 80 | > 80 | > 80 | pest or weed control at 12.5 ppm [6]: > 80%
8 | CCC1(NC(=O)c2cc(C#N)cc(C)c2NC(=O)c2cc(OCC(F)(F)F)nn2-c2ncccc2Cl)CS(=O)(=O)C1 [T13.1.113] | – | > 80 | > 80 | > 80 | > 80 | pest or weed control at 400 ppm [7]: > 80%; pest or weed control at 400 ppm [5]: > 80%; pest or weed control at 12.5 ppm [6]: > 80%
9 | CCC1(NC(=O)c2cc(Cl)cc(C)c2NC(=O)c2cc(OCC(F)(F)F)nn2-c2ncccc2Cl)CS(=O)(=O)C1 [T13.1.23] | – | > 80 | > 80 | > 80 | > 80 | pest or weed control at 12.5 ppm [6]: > 80%
10 | Cc1cc(C#N)cc(C(=O)NC2C(C)(C)S(=O)(=O)C2(C)C)c1NC(=O)c1cc(C(F)(F)F)nn1-c1ncccc1Cl [T16.1.91] | – | > 80 | > 80 | > 80 | > 80 | pest or weed control at 400 ppm [5]: > 80%
11 | Cc1cccc(C(=O)NC2CS(=O)(=O)C2)c1NC(=O)c1cc(C(F)(F)F)nn1-c1ncccc1Cl [T13.1.361] | – | > 80 | > 80 | > 80 | – | pest or weed control at 12.5 ppm [6]: > 80%
12 | Cc1cc(Cl)cc(C(=O)NC2CS(=O)(=O)C2)c1NC(=O)c1cc(Br)nn1-c1ncccc1Cl [T13.1.6] | – | > 80 | > 80 | > 80 | > 80 | pest or weed control at 400 ppm [7]: > 80%; pest or weed control at 400 ppm [5]: > 80%; pest or weed control at 12.5 ppm [6]: > 80%
13 | Cc1cc(C#N)cc(C(=O)NC2CS(=O)(=O)C2)c1NC(=O)c1cc(OCC(F)(F)F)nn1-c1ncccc1Cl [T13.1.111] | – | > 80 | > 80 | > 80 | > 80 | pest or weed control at 400 ppm [5]: > 80%
14 | Cc1cc(C#N)cc(C(=O)NC2CS(=O)(=O)C2(C)C)c1NC(=O)c1cc(C(F)(F)F)nn1-c1ncccc1Cl (stereo not shown) [T15.1.91] | – | > 80 | > 80 | > 80 | > 80 | pest or weed control at 400 ppm [5]: > 80%; pest or weed control at 400 ppm [8]: > 80%

Further lines, with some results ahead:

Row | melting point [°C] | SMILES | pest or weed control at 400 ppm [1] [%] | pest or weed control at 400 ppm [2] [%] | pest or weed control at 400 ppm [3] [%] | pest or weed control at 400 ppm [4] [%] | also measured
15 | 171 to 173 | Cc1cc(Cl)cc(C(=O)NC2C[S+]([O-])C2)c1NC(=O)c1cc(C(F)F)nn1-c1ncccc1Cl (stereo not shown) | – | – | – | – | –
16 | 241 to 244 | Cc1cc(Cl)cc(C(=O)NC2C[S+]([O-])C2)c1NC(=O)c1cc(C(F)(F)F)nn1-c1ncccc1Cl (single isomer, unassigned) | – | – | – | – | –
17 | 234 to 236 | CCC1(NC(=O)c2cc(Cl)cc(C)c2NC(=O)c2cc(C(F)(F)F)nn2-c2ncccc2Cl)CS(=O)(=O)C1 | – | – | – | – | –
18 | 238 to 241 | Cc1cc(C#N)cc(C(=O)NC2(C)CS(=O)(=O)C2)c1NC(=O)c1cc(C(F)F)nn1-c1ncccc1Cl | – | – | – | – | –
19 | 216 to 219 | Cc1cc(C#N)cc(C(=O)NC2(C)CS(=O)(=O)C2)c1NC(=O)c1cc(OCC(F)(F)F)nn1-c1ncccc1Cl | – | – | – | – | –
20 | 158 to 160 | Cc1cc(C#N)cc(C(=O)NC2CS(=O)(=O)C2)c1NC(=O)c1cc(C(F)F)nn1-c1ncccc1Cl | – | – | – | – | –
21 | 235 to 237 | Cc1cc(C#N)cc(C(=O)NC2(C)C[S+]([O-])C2)c1NC(=O)c1cc(C(F)F)nn1-c1ncccc1Cl (stereo not shown) | – | – | – | – | –
22 | 169 to 173 | Cc1cc(Cl)cc(C(=O)NC2(C)C[S+]([O-])C2)c1NC(=O)c1cc(C(F)F)nn1-c1ncccc1Cl (stereo not shown) | – | – | – | – | –
23 | 244 to 247 | Cc1cc(Cl)cc(C(=O)NC2(C)C[S+]([O-])C2)c1NC(=O)c1cc(Br)nn1-c1ncccc1Cl (stereo not shown) | – | – | – | – | –
24 | 170 to 173 | Cc1cc(Cl)cc(C(=O)NC2(C)CS(=O)(=O)C2)c1NC(=O)c1cc(C(F)F)nn1-c1ncccc1Cl | – | – | – | – | –
25 | > 250 | Cc1cc(Cl)cc(C(=O)NC2(C)CS(=O)(=O)C2)c1NC(=O)c1cc(OCC(F)(F)F)nn1-c1ncccc1Cl | – | – | – | – | –
26 | 220 to 222 | Cc1cc(Cl)cc(C(=O)NC2(C)C[S+]([O-])C2)c1NC(=O)c1cc(OCC(F)(F)F)nn1-c1ncccc1Cl (stereo not shown) | – | – | – | – | –
27 | 244 to 249 | Cc1cc(C#N)cc(C(=O)NC2(C)C[S+]([O-])C2)c1NC(=O)c1cc(Br)nn1-c1ncccc1Cl (stereo not shown) | – | – | – | – | –
28 | 230 to 233 | Cc1cc(C#N)cc(C(=O)NC2C[S+]([O-])C2)c1NC(=O)c1cc(C(F)F)nn1-c1ncccc1Cl (stereo not shown) | – | – | – | – | –
29 | 223 to 225 | Cc1cc(C#N)cc(C(=O)NC2(C)C[S+]([O-])C2)c1NC(=O)c1cc(OCC(F)(F)F)nn1-c1ncccc1Cl (stereo not shown) | – | – | – | – | –
30 | 191 to 193 | Cc1cc(Cl)cc(C(=O)NC2(C)CS(=O)(=O)C2)c1NC(=O)c1cc(Br)nn1-c1ncccc1Cl | – | – | – | – | –
31 | 151 to 155 | Cc1cc(Cl)cc(C(=O)NC2CS(=O)(=O)C2)c1NC(=O)c1cc(C(F)F)nn1-c1ncccc1Cl | – | – | – | – | –
